{"source": "patent US20260272871A1", "about": "“USE OF RETINOIC ACID RECEPTOR ACTIVATOR AND COMPOSITION THEREOF IN REGENERATION AND REPAIR OF MAMMALS” (INSTITUTE OF ZOOLOGY, CHINESE ACADEMY OF SCIENCES, priority 2022, published 2026)", "key": {"[1]": {"test_system": "2 mm diameter mouse ear hole", "experiment": "2 mm ear hole trauma mouse model (ear hole closure)", "format": "in vivo, C57BL/6 mice", "settings": "for ear hole regeneration (healing) on interfering with potential RA targets: 10 or 20 mg/kg per reagent, 21 days after the trauma, FIG. 5B; for healing of 2 mm ear holes by inhibitors of ferroptosis and autophagy: 10-20 mg/kg, measured 21 days after damage, vs DMSO and CHX, FIG. 3"}, "[2]": {"test_system": "4 mm diameter mouse ear hole", "design": "species or system mice", "settings": "in vivo"}, "scalded skin of mice": {"test_system": "scalded skin of mice", "experiment": "Scald scar formation in mice", "format": "in vivo", "settings": "after 40 days of administration, after hair shaving, vs Vehicle; FIG. 7", "procedure": "Experimental method: 7-week-old mice were used and (1) mice were anesthetized by intraperitoneal injection of 0.5% pentobarbital sodium (100 μl/10 g b.w.); (2) the back was shaved, and the skin was disinfected with 75% alcohol. (3) the mice were scalded with boiling water for 10-15 seconds. The scald area was a circle with a diameter of 1.5 cm. […] (5) wound repair status was detected."}}, "note": "Entries after “also recorded” stand apart in the source; their conditions may differ.", "data": [{"compound": "CC1=C(/C=C/C(C)=C/C=C/C(C)=C/CO)C(C)(C)CCC1", "note": "[vitamin A]", "values": [{"measurement": "ear hole regeneration (healing) on interfering with potential RA targets", "setting": "[1]", "result": "could also promote ear hole regeneration"}]}, {"compound": "C[C@@H]1C[C@@H]([C@H](O)CC2CC(=O)NC(=O)C2)C(=O)[C@@H](C)C1", "note": "[CHX, 4-((R)-2-((1S,3S,5S)-3,5-dimethyl-2-oxocyclohexyl)-2-hydroxyethyl)piperidine-2,6-dione]", "values": [{"measurement": "closure of 4 mm diameter ear holes", "setting": "[2]", "result": "promoted the shrinkage of ear hole wounds, but could not completely close them; also recorded: complete closure of the ear holes could be achieved"}, {"measurement": "wound area of the 4 mm mouse ear hole", "setting": "[2]", "result": "significantly reduced"}, {"measurement": "HE staining of auricle tissue 180 days after ear hole closure", "setting": "[1]; mouse, in vivo", "result": "regeneration of tissues and tissue derivatives such as hair follicles, glands, cartilage, muscles and blood vessels"}, {"measurement": "HE staining of mouse auricle tissue", "setting": "[1]; mouse, in vivo", "result": "the trauma had completely healed"}, {"measurement": "HE staining of mouse auricle tissue, 15th day", "setting": "[1]; mouse, in vivo", "result": "healed the tissue after damage and formed granulation tissue"}, {"measurement": "KI67 immunohistochemical staining of mouse auricle tissue", "setting": "[1]; mouse, in vivo", "result": "expressed a large amount of KI67"}, {"measurement": "concentration (dose) above which the ear hole wound was completely closed", "setting": "[1]; mouse, in vivo", "result": "greater than 8 mg/kg"}, {"measurement": "dose dependence of promotion of 2 mm ear hole healing", "setting": "[1]; mouse, in vivo", "result": "dose-dependent"}, {"measurement": "effect of different administration manners on ear hole healing", "setting": "[1]; mouse, in vivo", "result": "different manners of administration had the effect of promoting regeneration"}, {"measurement": "healing condition of 2 mm ear hole (photograph)", "setting": "[1]; mouse, in vivo", "result": "had completely closed"}, {"measurement": "healing of the 2 mm ear hole", "setting": "[1]; mouse, in vivo", "result": "could significantly promote the healing of the ear hole; also recorded: the healing effect of CHX was better"}, {"measurement": "closure of 2 mm diameter ear holes at different concentrations of CHX", "setting": "[1]; mouse, in vivo, ip", "result": "promoted the closure"}]}, {"compound": "CC1=C(/C=C/C(C)=C/C=C/C(C)=C/C(=O)O)C(C)(C)CCC1", "note": "[RA, all-trans retinoic acid]", "values": [{"measurement": "scar area after scald", "setting": "scalded skin of mice", "result": "significantly reduce the scar area"}, {"measurement": "closure of the ear hole with RA alone", "setting": "[1]; RA 5 mg/kg, 20 mg/kg vs DMSO, 21 days after ear hole damage, FIG. 5A", "result": "promote the closure of the ear hole in a dose-dependent manner"}]}, {"compound": "CCC(CC)C(c1ccc(Nc2nc3ccccc3s2)cc1)n1cncn1", "note": "(stereo not shown) [Talarozole]", "values": [{"measurement": "ear hole regeneration (healing) on interfering with potential RA targets", "setting": "[1]", "result": "could also promote ear hole regeneration"}]}, {"compound": "Cc1cc(Nc2cc(Cl)nc(Oc3ccc([N+](=O)[O-])cc3)n2)n[nH]1", "note": "[Autophinib]", "values": [{"measurement": "healing of 2 mm ear holes by inhibitors of ferroptosis and autophagy", "setting": "[1]", "result": "Neither inhibitors of ferroptosis nor autophagy could promote the healing of the ear hole like CHX"}]}, {"compound": "COc1ccc(C[C@H]2NC[C@H](O)[C@H]2OC(C)=O)cc1", "note": "[Ani, Anisomycin]", "values": [{"measurement": "healing of the 2 mm ear hole", "setting": "[1]; mouse, in vivo", "result": "could significantly promote the healing of the ear hole"}]}, {"compound": "Cc1ccc(C2=CCC(C)(C)c3ccc(C#Cc4ccc(C(=O)O)cc4)cc32)cc1", "note": "[AGN193109]", "values": [{"measurement": "effect of RAR inhibitor on CHX-induced ear hole healing", "setting": "[1]; CHX 20 mg/kg + AGN 0.75 mg/kg i.p., 21 days after damage, FIG. 4", "result": "completely inhibit the healing of the ear holes induced by CHX"}, {"measurement": "effect of RAR inhibitor on the coordinated effect of CHX+RA", "setting": "[1]; CHX 20 mg/kg + RA 5 mg/kg + AGN 0.75 mg/kg i.p., 21 days after damage, FIG. 4", "result": "could still be inhibited"}]}, {"compound": "O=C1OC(COc2ccccc2[N+](=O)[O-])CC1Cc1ccccc1", "note": "(stereo not shown) [3BDO]", "values": [{"measurement": "healing of 2 mm ear holes by inhibitors of ferroptosis and autophagy", "setting": "[1]", "result": "Neither inhibitors of ferroptosis nor autophagy could promote the healing of the ear hole like CHX"}]}, {"compound": "O=S(=O)(NCCN1CCNCC1)c1ccc(NC2CCCCC2)c(NCc2ccccc2)c1", "note": "[UAMC-3203]", "values": [{"measurement": "healing of 2 mm ear holes by inhibitors of ferroptosis and autophagy", "setting": "[1]", "result": "Neither inhibitors of ferroptosis nor autophagy could promote the healing of the ear hole like CHX"}]}]}
